pIC50: −log10 of the molar value.
Key:
[1] = target: PARG (389-976) (Homo sapiens (Human), UniProt Q86W56); assay: PARG enzyme inhibition assay (TR-FRET); type: biochemical
Procedure: PARG in vitro assays were conducted in standard 384-well plates in a total volume of 15 μL. 5 μL of PARG (389-976) (manufactured by Chempartner Chemical Co., Ltd.) in buffer (50 mM Tris-HCL 7.5, 30 mM KCl, 1 mM EDTA, 3 mM DTT, tween-20 0.01%, BSA 0.025%) was added at a final concentration of 1.5 pM to the 384-well plates containing the compounds to be tested, which was incubated for 30 min at room temperature. To the above mixture was added 5 μL Bio PARylated His-TEV-PARP1(2-1014) substrate (manufactured by Chempartner Chemical Co., Ltd.) at a final concentration of 12 nM, after addition, the resulting mixture was incubated for 30 minutes at room temperature. Then to the mixture was added detection reagent (5 μL) which was buffered with 50 mM Tris-HCL 7.5, 30 mM KCl, 1 mM EDTA, 3 mM DTT, tween-20 0.01%, BSA 0.025%, and consisted of 3 μM of compound PDD00017273 and 9 nM Mab anti-6HIS XL665 (Cisbio: 61HISXLA) and 0.9 nM streptavidin affinity terbium cryptate (Cisbio:610SATLA), all at 3× working concentrations (final concentrations of 1 μM, 3 nM and 0.3 nM, respectively). After 120 min incubation in the dark at room temperature, TR-FRET signals were measured at Ex 340 and Em 665 and Em 615. The ratio for each well was calculated as Em 665/Em 615 and the compound inhibition rate was calculated based on the obtained data.

[2] = test system: NCI-H460; assay: CTG assay for proliferation inhibition of cell lines; type: cell-based; settings: NCI-H460, 7 days, CellTiter Glo
Procedure: (§1) The assay was conducted on either 384-well plates or 96-well plates. The procedures are as follows:
(§2) The cell suspensions were added to 384- or 96-well plates (384-well plate: 50 μL; 96-well plate: 100 μL) except for peripheral wells. The plates were incubated in a carbon dioxide incubator overnight, HCC1395, HCC1428 and NCI-H460 were placed in a carbon dioxide incubator of 5%, […] overnight. Prepared compounds (10 concentration gradients by serial 3-fold dilution) were added to the wells using the HPD300 micro-dosing instrument. The cell plates were incubated in a carbon dioxide incubator for 7 days. HCC1395, HCC1428 and NCI-H460 were incubated in a 5%, 37° CO2 incubator. On the day of plate measurement, 384- or 96-well plates were first equilibrated at room temperature for 10-30 minutes, then to the 384- or 96-well plate was added CellTiter Glo reagent (384-well plate: 25 μL; 96-well plate: 100 μL), shaken for 10 minutes away from light, and incubated for 10 minutes. The incubated plates were placed into Victor NIVO reader plates, and the pharmacodynamic inhibition curves were plotted and IC50 values were calculated using XLFit.

[3] = test system: HCC1428; assay: as above; type: cell-based; settings: HCC1428, 7 days, CellTiter Glo
Procedure: as §1, §2

[4] = test system: HCC1395; assay: as above; type: cell-based; settings: HCC1395, 7 days, CellTiter Glo
Procedure: as §1, §2

[5] = class symbol, Bio PARylated His-TEV-PARP1 substrate, TR-FRET
[6] = numeric value in parentheses under the class symbol

Chain of PARG (389-976) (Q86W56 389-976): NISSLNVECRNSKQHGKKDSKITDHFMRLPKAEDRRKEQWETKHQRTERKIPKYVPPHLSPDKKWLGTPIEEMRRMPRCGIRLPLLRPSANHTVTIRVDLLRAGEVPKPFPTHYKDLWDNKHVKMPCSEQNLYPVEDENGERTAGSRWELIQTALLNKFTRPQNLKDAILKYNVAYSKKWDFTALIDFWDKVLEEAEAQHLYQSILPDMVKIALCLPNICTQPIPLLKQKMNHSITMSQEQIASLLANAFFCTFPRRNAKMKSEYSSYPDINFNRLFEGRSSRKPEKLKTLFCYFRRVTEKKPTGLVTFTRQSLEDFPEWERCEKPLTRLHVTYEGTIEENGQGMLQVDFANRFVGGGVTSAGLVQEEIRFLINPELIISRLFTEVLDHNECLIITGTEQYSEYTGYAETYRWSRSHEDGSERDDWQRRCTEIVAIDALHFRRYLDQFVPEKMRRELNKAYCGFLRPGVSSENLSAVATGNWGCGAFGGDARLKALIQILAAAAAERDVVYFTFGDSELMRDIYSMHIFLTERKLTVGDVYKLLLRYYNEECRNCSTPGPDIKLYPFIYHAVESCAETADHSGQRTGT

Row | Structure (SMILES) | pIC50 [1, 5] | IC50 [2] [µM] | IC50 [3] [µM] | IC50 [4] [µM] | pIC50 [1, 6] | IC50 ([2]; Homo sapiens, 168 h) [µM] | IC50 ([3]; Homo sapiens, 168 h) [µM] | IC50 ([4]; Homo sapiens, 168 h) [µM]
1 | CC(C)S(=O)(=O)N1CC=C(c2cc(S(=O)(=O)NC3(C#N)CC3)cc3c(-c4nnc(C(F)(F)F)s4)nn(CC(F)(F)F)c23)CC1 [Compound 58] | 8.00 to 9.00 | 0.216 | 0.201 | 0.253 |  |  |  | 
2 | CC(C)S(=N)(=O)N1CC=C(c2cc(S(=O)(=O)NC3(C#N)CC3)cc3c(-c4nnc(C(F)F)s4)nn(C)c23)CC1 (stereo not shown) [Compound 33] | > 9.00 | 0.5 | 0.616 | 0.691 |  |  |  | 
3 | CC(C)S(=O)(=O)N1CC=C(c2cc(S(=O)(=O)NC3(C#N)CC3)cc3c(-c4nnc(C(F)F)s4)nn(C)c23)C(F)C1 (stereo not shown) [Compound 69] | > 9.00 | 0.292 |  | 0.296 |  |  |  | 
4 | CC(C)C(=O)N1CCN(c2cc(S(=O)(=O)NC3(C#N)CC3)cc3c2cnn3-c2nnc(C(F)F)s2)CC1 [1′, reference compound] | 8.00 to 9.00 |  |  |  | 8.72 | 0.796 | 1.38 | 1.29
5 | CN(C)S(=O)(=O)N1CC=C(c2cc(S(=O)(=O)NC3(C#N)CC3)cc3c(-c4nnc(C(F)F)s4)nn(C)c23)CC1 [Compound 32] | 8.00 to 9.00 | 0.21 | 0.232 | 0.177 | 8.99 |  |  | 
6 | CC(C)S(=O)(=O)N1CC=C(c2cc(S(=O)(=O)NC3(C#N)CC3)cc3c(-c4nnc(C(F)F)s4)nn(CCN(C)C)c23)CC1 [Compound 26] | > 9.00 | 0.139 | 0.0865 |  | 9.80 |  |  | 
7 | CC(C)S(=O)(=O)N1CC=C(c2cc(S(=O)(=O)NC3(C#N)CC3)cc3c(-c4nnc(C(F)(F)F)s4)nn(CC4COC4)c23)CC1 [Compound 60] | 8.00 to 9.00 |  |  |  |  | 0.115 | 0.0778 | 0.181
8 | CC(C)S(=O)(=O)N1CC=C(c2cc(S(=O)(=O)NC3(C#N)CC3)cc3c(-c4ccc(C(F)F)nn4)nn(C)c23)CC1 [Compound 78] | 8.00 to 9.00 | 0.426 | 0.532 | 0.5 |  |  |  | 
9 | CC(C)S(=O)(=O)N1CC=C(c2cc(S(=O)(=O)NC3(C#N)CC3)cc3c(-c4nnc(C(F)(F)F)s4)nn(Cc4ccncc4)c23)CC1 [Compound 59] | 8.00 to 9.00 |  |  |  |  | 0.27 |  | 0.357
10 | CC(C)S(=O)(=O)c1ccc(-c2cc(S(=O)(=O)NC3(C#N)CC3)cc3c(-c4nnc(C(F)F)s4)nn(C)c23)cn1 [Compound 24] | > 9.00 | 0.493 | 0.578 | 0.65 |  |  |  | 
11 | CN=S(=O)(C(C)C)N1CC=C(c2cc(S(=O)(=O)NC3(C#N)CC3)cc3c(-c4nnc(C(F)F)s4)nn(C)c23)CC1 (stereo not shown) [Compound 40] | > 9.00 | 0.261 | 0.454 | 0.3 |  |  |  | 
12 | Cn1nc(-c2nnc(C(F)F)s2)c2cc(S(=O)(=O)NC3(C#N)CC3)cc(C3=CCN(S(=O)(=O)C4CCC4)CC3)c21 [Compound 12] | > 9.00 |  |  |  |  | 0.148 | 0.151 | 0.169
13 | CC(C)S(=O)(=O)N1CCC2(c3cc(S(=O)(=O)NC4(C#N)CC4)cc4c(-c5nnc(C(F)F)s5)nn(C)c34)OC2C1 (stereo not shown) [Compound 38] | > 9.00 | 0.366 | 0.4 | 0.432 |  |  |  | 
14 | CC(C)S(=O)(=O)N1CC=C(c2cc(S(=O)(=O)NC3(C)CC3)cc3c(-c4nnc(C(F)F)s4)nn(C)c23)CC1 [Compound 19] | > 9.00 | 0.0414 | 0.196 | 0.0532 | 9.92 |  |  | 
15 | CC(C)[S+]([O-])C1CC=C(c2cc(S(=O)(=O)NC3(C#N)CC3)cc3c(-c4nnc(C(F)F)s4)nn(C)c23)CC1 (stereo not shown) [Compound 30] | > 9.00 | 0.656 | 0.45 | 0.787 | 9.21 |  |  | 
16 | Cn1nc(-c2nnc(C(F)F)s2)c2cc(S(=O)(=O)NC3(C#N)CC3)cc(C3=CCN(S(=O)(=O)C4(C)CC4)CC3)c21 [Compound 14] | > 9.00 |  |  |  |  | 0.122 | 0.399 | 0.126

Row | Structure (SMILES) | pIC50 [1, 5] | IC50 [2] [µM] | IC50 [3] [µM] | IC50 [4] [µM] | pIC50 [1, 6] | IC50 ([2]; Homo sapiens, 168 h) [µM] | IC50 ([3]; Homo sapiens, 168 h) [µM] | IC50 ([4]; Homo sapiens, 168 h) [µM]
17 | Cn1nc(-c2nnc(C(F)F)s2)c2cc(S(=O)(=O)NC3(C#N)CC3)cc(C3=CCN(S(=O)(=O)C4CCOCC4)CC3)c21 [Compound 5] | > 9.00 | 0.183 | 0.132 | 0.222 | 9.48 |  |  | 
18 | CC(C)S(=O)(=O)C1CC=C(c2cc(S(=O)(=O)NC3(C#N)CC3)cc3c(-c4nnc(C(F)F)s4)nn(C)c23)CC1 (stereo not shown) [Compound 31] | 8.00 to 9.00 | 0.457 | 0.507 | 0.641 | 8.94 |  |  | 
19 | CC(C)S(=O)(=O)c1ccc(-c2cc(S(=O)(=O)NC3(C#N)CC3)cc3c(-c4nnc(C(F)F)s4)nn(C)c23)cc1 [Compound 9] | 8.00 to 9.00 | 0.147 | 1.17 | 0.197 |  |  |  | 
20 | CC(C)S(=O)(=O)N1CC=C(c2cc(S(=O)(=O)NC3(CF)CC3)cc3c(-c4nnc(C(F)F)s4)nn(C)c23)CC1 [Compound 18] | > 9.00 | 0.0408 | 0.215 | 0.0423 | 9.92 |  |  | 
21 | Cn1nc(-c2nnc(C(F)F)s2)c2cc(S(=O)(=O)NC3(C#N)CC3)cc(C3=CCN(S(=O)(=O)C4CCNCC4)CC3)c21 [Compound 39] | > 9.00 | 0.429 | 0.369 | 0.827 |  |  |  | 
22 | COCC(C)S(=O)(=O)N1CC=C(c2cc(S(=O)(=O)NC3(C#N)CC3)cc3c(-c4nnc(C(F)F)s4)nn(C)c23)CC1 (stereo not shown) [Compound 23] | > 9.00 | 0.124 | 0.466 | 0.183 |  |  |  | 
23 | CC(C)[S+]([O-])c1ccc(-c2cc(S(=O)(=O)NC3(C#N)CC3)cc3c(-c4nnc(C(F)(F)F)s4)nn(C)c23)nc1 (stereo not shown) [Compound 48] | 7.00 to 8.00 | 2.05 |  | 2.04 |  |  |  | 
24 | CC(C)S(=O)(=O)N1CC=C(c2cc(S(=O)(=O)NC3(C#N)CC3)cc3c(-c4nnc(C(F)(F)F)s4)nn(C)c23)CC1 [Compound 15] | > 9.00 | 0.0561 | 0.117 | 0.0955 |  |  |  | 
25 | Cn1nc(-c2nnc(C(F)F)s2)c2cc(S(=O)(=O)NC3(C#N)CC3)cc(C3=CCN(S(=O)(=O)C4COC4)CC3)c21 [Compound 22] | > 9.00 | 0.714 | 1.09 | 0.605 |  |  |  | 
26 | Cn1nc(-c2nnc(C(F)F)s2)c2cc(S(=O)(=O)NC3(C#N)CC3)cc(C3=CCN(S(=O)(=O)C4CNC4)CC3)c21 [Compound 20] | > 9.00 | 2.81 | 3.02 | 3.95 | 10.22 |  |  | 
27 | CC(C)S(=O)(=O)N1CC=C(c2cc(S(=O)(=O)NC3(C#N)CC3)cc3c(-c4nnc(C(F)F)s4)n(CC4CC4)nc23)CC1 [Compound 44] |  | 1.07 |  | 1.05 |  |  |  | 
28 | CC(C)S(=O)(=O)N1CCN(c2cc(S(=O)(=O)NC3(C#N)CC3)cc3c(-c4nnc(C(F)(F)F)s4)nn(C)c23)CC1 [Compound 35] | > 9.00 | 0.162 | 0.698 | 0.284 |  |  |  | 
29 | CC(C)S(=O)(=O)N1CCC(c2cc(S(=O)(=O)NC3(C#N)CC3)cc3c(-c4nnc(C(F)F)s4)nn(C)c23)=C(C=O)C1 [Compound 70] | > 9.00 |  | 0.343 | 0.27 |  |  |  | 
30 | CC(C)S(=O)(=O)N1CCC(c2cc(S(=O)(=O)NC3(C#N)CC3)cc3c(-c4nnc(C(F)F)s4)nn(C)c23)=C(CO)C1 [Compound 36] | > 9.00 | 0.0729 | 0.0978 | 0.127 |  |  |  | 
31 | CC(C)[S+]([O-])N1CC=C(c2cc(S(=O)(=O)NC3(C#N)CC3)cc3c(-c4nnc(C(F)F)s4)nn(C)c23)CC1 (stereo not shown) [Compound 25] | > 9.00 | 0.185 | 0.152 | 0.206 | 9.47 |  |  | 
32 | CC(C)S(=O)(=O)N1CC=C(c2cc(S(=O)(=O)NC3(C#N)CC3)cc3c(-c4nnc(C(F)(F)F)s4)nn(CC4CNC4)c23)CC1 [Compound 61] | > 9.00 |  | 1.68 | 1.63 |  |  |  | 

— US20250042891A1, “Compound containing structure of a heteroaromatic ring, pharmaceutical composition thereof and application thereof” (SHANGHAI YINGLI PHARMACEUTICAL CO., LTD, priority 2023, published 2025)
